Measured values reported in patent US7229986B2, “Melanin-concentrating hormone antagonist” (Takeda Pharmaceutical Company Ltd., priority 2000, dated 2007).
Counter-ions that a name gives are not always drawn.

System: not given
Assay: not given
Settings: not given

Row | Compound | melting point
1 | O=C(CCC(=O)N1CCC(c2ccc(Cl)cc2)CC1)c1ccc2c(c1)CCN(C(=O)C(F)(F)F)CC2 [Example 14, 4-[4-(4-Chlorophenyl)-1-piperidinyl]-4-oxo-1-[3-(trifluoroacetyl)-2,3,4,5-tetrahydro-1H-3-benzazepin-7-yl]-1-butanone] | 131 to 132 °C
2 | O=C(CCC(=O)N1CCC(c2ccccc2)CC1)c1ccc2c(c1)CCN(C(=O)C(F)(F)F)CC2 [Example 31, 4-Oxo-4-(phenyl-1-piperidinyl)-1-[3-(trifluoroacetyl)-2,3,4,5-tetrahydro-1H-3-benzazepin-7-yl]-1-butanone] | 132 to 133 °C
3 | CN(C)CCCc1ccc2c(c1)CCCN2C(=O)c1ccc(-c2ccccc2)cc1 [Example 1, 3-[1-([1,1′-Biphenyl]-4-ylcarbonyl)-1,2,3,4-tetrahydro-6-quinolinyl]-N,N-dimethyl-1-propanamine] | 100 to 101 °C
4 | O=C(CCC(=O)N1CCC(c2ccc(Cl)cc2)CC1)c1ccc2c(c1)CCNCC2 [Example 15, 4-[4-(4-Chlorophenyl)-1-piperidinyl]-4-oxo-1-(2,3,4,5-tetrahydro-1H-3-benzazepin-7-yl)-1-butanone] | 148 to 149 °C
5 | O=C(CCC(=O)N1CCC(c2ccc(Cl)cc2)CC1)c1ccc2c(c1)CCN(C1CCCCC1)CC2 [Example 195, 4-[4-(4-Chlorophenyl)-1-piperidinyl]-1-(3-cyclohexyl-2,3,4,5-tetrahydro-1H-3-benzazepin-7-yl)-4-oxo-1-butanone] | 128 to 130 °C
6 | CN(C)C/C=C/c1ccc2c(c1)CCN2C(=O)c1ccc(-c2ccccc2)cc1 [Example 7, (E)-3-[1-[([1,1′-Biphenyl]-4-yl)carbonyl]-2,3-dihydro-1H-indol-5-yl]-N,N-dimethyl-2-propen-1-amine] | 174 to 176 °C
7 | O=C(CCC(=O)N1CCC(c2ccccc2)CC1)c1ccc2c(c1)CCNCC2 [Example 32, 4-Oxo-4-(phenyl-1-piperidinyl)-1-(2,3,4,5-tetrahydro-1H-3-benzazepin-7-yl)-1-butanone] | 114 °C
8 | CCCN(CCC)C(=O)Cc1ccc2c(c1)NC(=O)CO2 [Example 133, N,N-Dipropyl-(3,4-dihydro-2H-1,4-benzoxazine-3-oxo-6-yl) acetamide] | 121 to 122 °C
9 | O=C(CCCC(=O)N1CCC(c2ccc(Cl)cc2)CC1)c1ccc2c(c1)CCNCC2 [Example 205, 5-[4-(4-Chlorophenyl)-1-piperidinyl]-5-oxo-1-(2,3,4,5-tetrahydro-1H-3-benzazepin-7-yl)-1-pentanone] | 112 to 113 °C
10 | CCCN(CCC)CCc1ccc2c(c1)N(S(=O)(=O)c1ccc(Cl)cc1)CCO2 (as salt: succinate) [Example 137, 4-(4-Chlorobenzenesulfonyl)-3,4-dihydro-6-[2-(N,N-dipropylamino)ethyl]-2H-1,4-benzoxazine succinate] | 130 to 133 °C
11 | O=C(CCCN1CCC(c2ccc(Cl)cc2)CC1)c1ccc2c(c1)CCNCC2 (as salt: HCl) [Example 34, 4-[4-(4-Chlorophenyl)-1-piperidinyl]-1(2,3,4,5-tetrahydro-1H-3-benzazepin-7-yl)-1-butanone] | 243 to 247 °C (dec.)
12 | CN1CCc2ccc(C(=O)CCCN3CCC(c4ccc(Cl)cc4)CC3)cc2CC1 (as salt: HCl) (hydrate or solvate) [Example 35, 4-[4-(4-Chlorophenyl)-1-piperidinyl]-1-(3-methyl-2,3,4,5-tetrahydro-1H-3-benzazepin-7-yl)-1-butanone] | 248 to 252 °C (dec.)
13 | COc1ccc(COc2ccc(C(=O)N3CCc4cc(/C=C/CN(C)C)ccc43)cc2)cc1 [Example 9, (E)-3-[1-[4-[(4-Methoxybenzyl)oxy]benzoyl]-2,3-dihydro-1H-indol-5-yl]-N,N-dimethyl-2-propen-1-amine] | 164 to 166 °C
14 | CN(C)C/C=C/c1ccc2c(c1)CCCN2C(=O)c1ccc(-c2ccc(Cl)cc2)cc1 [Example 5, (E)-3-[1-[(4′-Chloro[1,1-biphenyl]-4-yl)carbonyl]-1,2,3,4-tetrahydro-6-quinolinyl]-N,N-dimethyl-2-propen-1-amine] | 162 to 164 °C
15 | CN1CCc2ccc(C(=O)CCC(=O)N3CCC(c4ccc(Cl)cc4)CC3)cc2CC1 [Example 16, 4-[4-(4-Chlorophenyl)-1-piperidinyl]-4-oxo-1-(3-methyl-2,3,4,5-tetrahydro-1H-3-benzazepin-7-yl)-1-butanone] | 143 to 145 °C
16 | O=C(c1ccc(-c2ccc(Cl)cc2)cc1)N1CCCc2cc(/C=C/CN3CCCCC3)ccc21 [Example 6, 1-[(4′-Chloro[1,1-biphenyl]-4-yl)carbonyl]-6-[(E)-3-piperidino-1-propenyl]-1,2,3,4-tetrahydroquinoline] | 141 to 143 °C
17 | CN(C)CCCc1ccc2c(c1)N(C(=O)c1ccc(-c3ccccc3)cc1)CCCC2 (as salt: hydrochloride) [Example 3, 3-[1-([1,1′-Biphenyl]-4-ylcarbonyl)-2,3,4,5-tetrahydro-1H-1-benzazepin-8-yl]-N,N-dimethyl-1-propanamine hydrochloride] | 84 to 86 °C
18 | CCCN(CCC)CCc1ccc2c(c1)N(Cc1cccc3ccccc13)CCO2.Cl | 177 to 178 °C
19 | O=C(CCC(=O)N1CCC(c2ccc(Cl)cc2)CC1)c1ccc2c(c1)CCN(CC1CCCO1)CC2 (stereo not shown) [Example 194, 4-[4-(4-Chlorophenyl)-1-piperidinyl]-4-oxo-1-[3-(tetrahydro-2-furanylmethyl)-2,3,4,5-tetrahydro-1H-3-benzazepin-7-yl]-1-butanone] | 123 to 125 °C
20 | CN(C)C/C=C/c1ccc2c(c1)N(C(=O)c1ccc(-c3ccccc3)cc1)CCCC2 (as salt: hydrochloride) [Example 2, (E)-3-[1-([1,1′-Biphenyl]-4-ylcarbonyl)-2,3,4,5-tetrahydro-1H-1-benzazepin-8-yl]-N,N-dimethyl-2-propen-1-amine hydrochloride] | 112 to 113 °C

Biological target: SLC-1 (UniProt Q99705)
Assay: Determination of antagonist activity using GTPγS binding assay
Format: biochemical, human, rat
Settings: inhibition of MCH-stimulated [35S]-GTPγS binding, SLC-1 expressing CHO cell membrane fractions, 25° C., 1 hour
Description: Membrane fraction was prepared by the following method, using the human SLC-1 expressing CHO cell clone 57 obtained in Reference Example 1-10, and the rat SLC-1 expressing CHO cell clone 44 obtained in Reference Example 1-4.
The human and rat SLC-1 expressing CHO cells (1×10^8) were scraped in buffer saline phosphate (pH 7.4) to which 5 mM EDTA (ethylenediaminetetraacetic acid) had been added, and centrifuged. 10 ml of homogenized buffer (10 mM NaHCO3, 5 mM EDTA, pH 7.5) was added to the cell pellets, and they were homogenized using a Polytron homogenizer. […]
After this reaction mixture was allowed to react at 25° C. for 1 hour under stirring, it was filtered under vacuum using a glass filter (GF-C), then the filter was washed 3 times with 300 μl of washing solution (50 mM Tris-HCl buffer solution pH 7.5). 50 ml of liquid scintillator was added to the glass filter, and residual radioactivity was determined using a liquid scintillation counter.
The IC50 value of the compound was calculated from the binding inhibition rate (%), based on the definition that the binding inhibition rate (%)=(radioactivity when compound and MCH were added−radioactivity when DMSO solution was added)/(radioactivity when MCH was added−radioactivity when DMSO solution was added)×100.

Row | Compound | IC50
21 | CN(C)CCCc1ccc2c(c1)CCCN2C(=O)c1ccc(-c2ccccc2)cc1 [Example 1, 3-[1-([1,1′-Biphenyl]-4-ylcarbonyl)-1,2,3,4-tetrahydro-6-quinolinyl]-N,N-dimethyl-1-propanamine] | 0.3 µM
22 | CN(C)C/C=C/c1ccc2c(c1)CCCN2C(=O)c1ccc(-c2ccc(Cl)cc2)cc1 [Example 5, (E)-3-[1-[(4′-Chloro[1,1-biphenyl]-4-yl)carbonyl]-1,2,3,4-tetrahydro-6-quinolinyl]-N,N-dimethyl-2-propen-1-amine] | 0.02 µM
